Where “and” joins values, the source holds several entries; their conditions need not be identical. Equal values may be shown once.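 Where inhibition never reached the appropriate level, the endpoint shown equals the highest concentration tested. Otherwise, values were interpolated linearly from a five-concentration, 48-hour dose response in 96-well plates. GI50 = concentration required for 50% inhibition of growth. TGI is the concentration that stops growth completely.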 *1 amine or outer side, *2 acyl side, *3 side chain or, on linkers, in order; H or OH if unused. Where a SMILES comes first, the peptide text is derived from it. Bridges are numbered along the chain shown (N, C = ends). Roman numbers before positions name the chains, in order. [ ]: non-standard residue; d: D form. Actinocin(1to9) = Cc1c2oc3c(C)ccc(C(=O)[*:2])c3nc-2c(C(=O)[*:1])c(N)c1=O; NMeV = CN[CH](C(=O)O)C(C)C; Sar = CNCC(=O)O
Legend:
Experiment in all cases: inhibition of tumour cell growth, NCI panel, 48 h
[1] = test system: ACHN renal
[2] = test system: SF-539 CNS
[3] = test system: HCC-2998 colon
[4] = test system: MALME-3M melanoma
[5] = test system: OVCAR-5 ovarian
[6] = test system: PC-3 prostate
[7] = test system: NCI-H23 lung
[8] = test system: NCI-H522 lung
[9] = test system: SR leukemia
[10] = test system: HCT-15 colon
[11] = test system: HT29 colon
[12] = test system: UACC-257 melanoma
[13] = test system: IGROV1 ovarian
[14] = test system: TK-10 renal
[15] = test system: OVCAR-8 ovarian
[16] = test system: MDA-MB-231 breast
[17] = test system: NCI-H226 lung
[18] = test system: A549 NSCLC
[19] = test system: KM12 colon
[20] = test system: SK-MEL-5 melanoma
[21] = test system: EKVX NSCLC
[22] = test system: COLO 205 colon
[23] = test system: MDA-N
[24] = test system: RXF 393 renal
[25] = test system: HL-60(TB) leukemia
[26] = test system: 786-0 renal
[27] = test system: BT-549 breast
[28] = test system: SNB-19 CNS
[29] = test system: MCF7 breast
[30] = test system: A498 renal
[31] = test system: CAKI-1 renal
[32] = test system: RPMI-8226 leukemia
[33] = test system: NCI/ADR-RES ovarian
[34] = test system: SK-MEL-28 melanoma
[35] = test system: NCI-H460 lung
[36] = test system: SW-620 colon
[37] = test system: HCT-116 colon
[38] = test system: DU-145 prostate
[39] = test system: SF-268 CNS
[40] = test system: LOX IMVI melanoma
[41] = test system: OVCAR-4 ovarian
[42] = test system: UACC-62 melanoma
[43] = test system: HOP-92 NSCLC
[44] = test system: U251 CNS
[45] = test system: M14 melanoma
[46] = test system: SNB-75 CNS
[47] = test system: HS 578T breast
[48] = test system: SK-OV-3 ovarian
[49] = test system: SF-295 CNS
[50] = test system: MOLT-4 leukemia
[51] = test system: OVCAR-3 ovarian
[52] = test system: UO-31 renal
[53] = test system: K-562 leukemia
[54] = test system: CCRF-CEM leukemia
[55] = test system: SN12C renal
[56] = test system: MDA-MB-435
[57] = test system: HOP-62 NSCLC
[58] = test system: SK-MEL-2 melanoma
[59] = test system: T-47D breast

## C=C(Cl)[C@](Cl)(CBr)CC[C@@H](Br)C(C)(C)Cl
[1]
  TGI: 2.31 µM
[2]
  TGI: 1.28 µM
[3]
  TGI: 2.93 µM
[4]
  TGI: 24.2 µM
[5]
  TGI: 2.98 µM
[6]
  TGI: 1.18 µM
[7]
  TGI: 28.5 µM
[8]
  TGI: 30.2 µM
[9]
  TGI: 25.5 µM
[10]
  TGI: 4.64 µM
[11]
  TGI: 2.06 µM
[12]
  TGI: 2.99 µM
[13]
  TGI: 21.2 µM
[14]
  TGI: 3.4 µM
[15]
  TGI: 2.86 µM
[16]
  TGI: 3.39 µM
[17]
  TGI: 32.8 µM
[18]
  TGI: 5.49 µM
[19]
  TGI: 2.26 µM
[20]
  TGI: 24.9 µM
[21]
  TGI: 8.04 µM
[22]
  TGI: 3.41 µM
[23]
  TGI: 2.47 µM
[24]
  TGI: 0.576 µM
[25]
  TGI: 2.06 µM
[26]
  TGI: 0.552 µM
[27]
  TGI: 11.7 µM
[28]
  TGI: 3.27 µM
[29]
  TGI: 2.18 µM
[30]
  TGI: 3.41 µM
[31]
  TGI: 0.751 µM
[32]
  TGI: 0.363 µM
[33]
  TGI: 4.32 µM
[34]
  TGI: 3.27 µM
[35]
  TGI: 2.46 µM
[36]
  TGI: 5.03 µM
[37]
  TGI: 1.38 µM
[38]
  TGI: 2.74 µM
[39]
  TGI: 2.18 µM
[40]
  TGI: 32.1 µM
[41]
  TGI: 3.44 µM
[42]
  TGI: 19.3 µM
[43]
  TGI: 1.1 µM
[44]
  TGI: 0.335 µM
[45]
  TGI: 30.7 µM
[46]
  TGI: 2.09 µM
[47]
  TGI: 1.41 µM
[48]
  TGI: 25.3 µM
[49]
  TGI: 2.23 µM
[50]
  TGI: 31.9 µM
[51]
  TGI: 1.58 µM
[52]
  TGI: 2.41 µM
[53]
  TGI: 16.3 µM
[54]
  TGI: 46.6 µM
[55]
  TGI: 17.6 µM
[56]
  TGI: 4.03 µM
[57]
  TGI: 0.9 µM

## CCc1cccc(C(C)C)c1NC(=O)C(=O)Nn1c(=S)[nH]c2ccccc2c1=O
[1]
  TGI: > 100 µM
[2]
  TGI: > 100 µM
[3]
  TGI: > 100 µM
[4]
  TGI: > 100 µM
[5]
  TGI: > 100 µM
[6]
  TGI: > 100 µM
[7]
  TGI: > 100 µM
[8]
  TGI: > 100 µM
[9]
  TGI: > 100 µM
[10]
  TGI: > 100 µM
[11]
  TGI: > 100 µM
[12]
  TGI: > 100 µM
[13]
  TGI: > 100 µM
[14]
  TGI: > 100 µM
[15]
  TGI: > 100 µM
[16]
  TGI: > 100 µM
[17]
  TGI: > 100 µM
[18]
  TGI: > 100 µM
[19]
  TGI: > 100 µM
[20]
  TGI: > 100 µM
[21]
  TGI: > 100 µM
[23]
  TGI: > 100 µM
[24]
  TGI: > 100 µM
[26]
  TGI: > 100 µM
[27]
  TGI: > 100 µM
[29]
  TGI: > 100 µM
[30]
  TGI: > 100 µM
[31]
  TGI: > 100 µM
[32]
  TGI: > 100 µM
[33]
  TGI: > 100 µM
[58]
  TGI: > 100 µM
[34]
  TGI: > 100 µM
[35]
  TGI: > 100 µM
[36]
  TGI: > 100 µM
[37]
  TGI: > 100 µM
[39]
  TGI: > 100 µM
[40]
  TGI: > 100 µM
[41]
  TGI: > 100 µM
[42]
  TGI: > 100 µM
[43]
  TGI: > 100 µM
[44]
  TGI: > 100 µM
[45]
  TGI: > 100 µM
[46]
  TGI: > 100 µM
[47]
  TGI: > 100 µM
[48]
  TGI: > 100 µM
[49]
  TGI: > 100 µM
[50]
  TGI: > 100 µM
[51]
  TGI: > 100 µM
[52]
  TGI: > 100 µM
[59]
  TGI: > 100 µM
[53]
  TGI: > 100 µM
[54]
  TGI: > 100 µM
[55]
  TGI: > 100 µM
[56]
  TGI: > 100 µM
[57]
  TGI: > 100 µM

## Cc1ccc(S(=O)(=O)NC(=O)NC(CCCCN)C(=O)O)cc1 (stereo not drawn)
[1]
  TGI: > 100 µM
[2]
  TGI: > 100 µM
[4]
  TGI: > 100 µM
[6]
  TGI: > 100 µM
[7]
  TGI: > 100 µM
[8]
  TGI: > 100 µM
[9]
  TGI: > 100 µM
[10]
  TGI: > 100 µM
[12]
  TGI: > 100 µM
[13]
  TGI: > 100 µM
[14]
  TGI: > 100 µM
[15]
  TGI: > 100 µM
[16]
  TGI: > 100 µM
[18]
  TGI: > 100 µM
[19]
  TGI: > 100 µM
[20]
  TGI: > 100 µM
[22]
  TGI: > 100 µM
[23]
  TGI: > 100 µM
[24]
  TGI: > 100 µM
[25]
  TGI: > 100 µM
[26]
  TGI: > 100 µM
[27]
  TGI: > 100 µM
[28]
  TGI: > 100 µM
[29]
  TGI: > 100 µM
[32]
  TGI: > 100 µM
[33]
  TGI: > 100 µM
[58]
  TGI: > 100 µM
[34]
  TGI: > 100 µM
[35]
  TGI: > 100 µM
[36]
  TGI: > 100 µM
[37]
  TGI: > 100 µM
[38]
  TGI: > 100 µM
[39]
  TGI: > 100 µM
[40]
  TGI: > 100 µM
[41]
  TGI: > 100 µM
[42]
  TGI: > 100 µM
[43]
  TGI: > 100 µM
[44]
  TGI: > 100 µM
[45]
  TGI: > 100 µM
[46]
  TGI: > 100 µM
[47]
  TGI: > 100 µM
[48]
  TGI: > 100 µM
[49]
  TGI: > 100 µM
[50]
  TGI: > 100 µM
[52]
  TGI: > 100 µM
[59]
  TGI: > 100 µM
[53]
  TGI: > 100 µM
[54]
  TGI: > 100 µM
[55]
  TGI: > 100 µM
[57]
  TGI: > 100 µM

## COc1ccc(CC2NC(=O)C(NC(=O)c3c4nc5c(C(=O)NC6C(=O)NC(Cc7ccc(OC)cc7)C(=O)N7CCCC7C(=O)N(C)CC(=O)N(C)C(C(C)C)C(=O)OC6C)ccc(C)c5oc-4c(C)c(=O)c3N)C(C)OC(=O)C(C(C)C)N(C)C(=O)CN(C)C(=O)C3CCCN3C2=O)cc1 (stereo not drawn) (I: TY(Me)P[Sar][NMeV] / II: TY(Me)P[Sar][NMeV]; ester I:1-I:C, II:1-II:C; linker I:N-II:N via Actinocin(1to9); configuration not given here)
[1]
  TGI: 1.66 µM and 1.55 µM
[2]
  TGI: 0.0257 µM
[3]
  GI50: 0.013 µM
[4]
  TGI: 0.0374 µM
[5]
  GI50: 0.0302 µM
  TGI: 0.419 µM and 0.67 µM
[6]
  TGI: 0.355 µM and 0.212 µM
[7]
  TGI: 0.126 µM
[8]
  TGI: 0.0234 µM and 0.0235 µM
[9]
  TGI: < 0.001 µM
[11]
  TGI: 0.0174 µM and 0.0463 µM
[12]
  TGI: 0.0349 µM
[16]
  TGI: 0.731 µM
[17]
  GI50: < 0.001 µM
  TGI: 0.0228 µM and 0.0527 µM
[19]
  TGI: 1.06 µM
[20]
  TGI: 0.0172 µM
[21]
  GI50: 0.0514 µM
  TGI: 3.27 µM and 0.862 µM
[22]
  TGI: 0.0172 µM
[23]
  TGI: 0.0876 µM
[24]
  TGI: 0.0203 µM
[25]
  TGI: < 0.001 µM
[26]
  TGI: 0.0253 µM
[27]
  TGI: 0.0254 µM
[28]
  TGI: 3.43 µM and 0.539 µM
[30]
  TGI: 0.0242 µM
[31]
  TGI: 0.306 µM
[58]
  TGI: 0.00549 µM
[38]
  TGI: 0.0843 µM
[39]
  GI50: < 0.001 µM
  TGI: 0.118 µM and 0.526 µM
[40]
  TGI: 0.0144 µM
[41]
  GI50: 0.0138 µM
  TGI: 0.49 µM and 0.224 µM
[42]
  TGI: 0.00628 µM and 0.0307 µM
[45]
  TGI: 0.135 µM
[46]
  GI50: 0.0552 µM
  TGI: 0.0339 µM and 0.324 µM
[47]
  TGI: 0.265 µM
[48]
  TGI: 12.6 µM
[49]
  TGI: > 100 µM
[51]
  GI50: < 0.001 µM
  TGI: 0.025 µM and 0.0737 µM
[52]
  GI50: 0.0327 µM
  TGI: 0.46 µM and 0.257 µM
[59]
  TGI: 0.0705 µM
[53]
  TGI: 0.0708 µM
[54]
  TGI: 0.0418 µM
[56]
  TGI: 0.0265 µM
[57]
  TGI: 0.0405 µM and 0.236 µM
